The values that follow come from patent US10238631B2, “Sesquiterpene derivatives and their use in inflammation or cancer treatment” (Academia Sinica, priority 2014, dated 2019).

The test system of data set [1] is MDA-MB-231 mammary tumor. As to the kind of experiment: Orthotopic MDA-MB-231 mammary tumor growth in NOD/SCID mice. The data set is classed as in vivo, mouse. As for the experimental part:
Mammary tumor response to DET analog (DETD-35) was studied using MDA-MB-231 cancer cell bearing NOD/SCID mice (6 weeks old). The mammary fat pad regions of mice were injected with 5×10^6 MDA-MB-231 cells in 100 μL (9.1 mg/mL) matrigel (Basement Membrane Matrix. Phenol Red-free) on day 0. Tumors were allowed to grow in the mice for 7 days, and then the animals were randomly assigned to three groups (n=5 per group): sham, tumor (vehicle) control and 10 mg/kg DETD-35 treatment group. DETD-35 was intraperitoneally […] injected every three days. The test mice were sacrificed by cervical dislocation at day 71, and the tumor were collected and measured for the volume (V) using calipers and calculated by the formula V=(L×W^2)/2, where L is the length and W is the width of tumor.

Data set [2] relates to MDA-MB-231 lung metastasis. The data set can be described thus: Lung metastasis of MDA-MB-231 cells in SCID mice. The data set is classed as in vivo, mouse. As for the experimental part: Female SCID mice (5 weeks old, average body weight 19.59±1.26 g) were assigned to 8 groups: PIX group (5 mg/kg paclitaxel), DETD-35-2 group (2 mg/kg DETD-35), DETD-35-10 group (10 mg/kg DETD-35). PTX-5+DETD-35-2 group (5 mg/kg paclitaxel and 2 mg/kg DETD-35 administration alternatively for eleven doses of paclitaxel (PTX) and ten doses of DETD-35 in total), tumor (vehicle) group (5% DMSO), and sham group (5% DMSO). Pre-DETD-35-10 group was the mice administered 10 mg/kg DETD-35 every two days for three doses before the i.v. injection of 1×10^6 MDA-MB-231 tumor cells at day 0. All other drug or compounds were administered i.p. every three days starting from day 1. At the end of experiment (day 71), the test mice were sacrificed by cervical dislocation. The lung, liver, kidney, and spleen organs were removed and recorded weights and calculated for organ index (% of organ weight/body weight). The number of tumor colonies on lungs of test mice was counted.

For data set [3], the system named is MDA-MB-231 cells. As to the kind of experiment: Compound-drug combination assay with PTX. The following applies: 0-4 μM compound, 0-25 nM PTX. The data set is classed as cell-based, human. As for the experimental part: (§1) Cell proliferation was measured by MTT assay. Isobologram analysis and Chou-Talalay method was used to determine the effects of compound drug combinations. The interaction of DETDs and PLX4032 or PTX was determined by the combination index (CI), and the CI plot was generated using CompuSyn software. The combined effects of two compounds can be categorized as follows: CI=1 indicates additive interaction, CI<1 indicates synergism, and CI>1 indicates antagonism.
To investigate whether or not DETD-35 and DETD-39 act synergistically with PTX against MDA-MB-231 cell activity, anti-proliferation assay using MTT reagent was performed to obtain the IC60 value of each compound. […] Based on the IC60 values, DETD-35 or DETD-39 ranging from 0 to 4 μM and PIX from 0 to 25 nM were used for compound-drug combination study. Classic isobologram analysis and Chou-Talalay method were conducted to investigate the synergistic effect of compound and drug. Combination index (CI) was calculated with CalcuSyn software (Version 2.0, Biosoft) and expressed as CI vs. Fa (fraction affected). CI<1 indicates synergy; CI=1 indicates additive effect; and CI>1 indicates antagonism.

Data set [4] concerns A375 melanoma cells. As to the kind of experiment: Compound-drug combination assay with PLX4032. It counts as cell-based, human. The conditions noted are these: DETD-35 0.1 to 1 μM, PLX4032 10 to 100 nM, 72 h. As for the experimental part:
as §1
To investigate whether or not DETD-35 show synergism with PLX4032 against A375 melanoma cells, we performed anti-proliferation assay using MTT reagent to obtain IC50 of each compound. […] The synergistic effect was quantified by combination index (CI) analysis as stated above.

Data set [5] concerns A375-R acquired vemurafenib resistance melanoma cells. The data set can be described thus: MTT cell viability assay, PLX4032-resistant A375-R. It counts as cell-based, human. The following applies: Homo sapiens; 72 h, MTT. The protocol: A375-R, acquired vemurafenib resistance melanoma cell was generated from A375 parental cell and grown in same conditions as A375 cell.
Normal or cancer cells (2×10^3 to 1×10^4 cells/well) were seeded in 96-well plate for overnight and treated with different compounds for 24 h to 72 h. Cells growth were determined by MTT-based colorimetric assays according to. Viability of the test cells treated with vehicle (0.5% DMSO) only was defined as 100% viable. Survival of cells after treatment with DETDs was calculated using the following formula: viable cell number (%)=OD570 (treated cell culture)/OD570 (vehicle control)×100.
To study the mechanisms underlying how DETD-35 overcomes acquired resistance to BRAF inhibitor, we generated A375 cell line resistant to PLX4032 (designated A375-R). Briefly, A375 melanoma cells were seeded in T75 plate and treated with ascending concentration of PLX4032 (20, 50, 100, 250, 500, 1000, 2000 nM) through approximately 2 months and 20 passages.

Data set [6] deals with phospho-MEK and phospho-ERK in A375-R cells. As to the kind of experiment: Western blot of MAPK signaling, A375-R. The data set is classed as cell-based, human. The protocol: Total cellular proteins were prepared from test cells as previously described. Protein concentration was determined by the Bradford method (Bio-Rad). Protein samples were resolved by 5% to 20% gradient SDS-PAGE and then underwent immunoblotting. Primary antibodies against ERK1/2 and GAPDH were from Santa Cruz Biotechnology (Santa Cruz, Calif., USA) and MEK, phospho-ERK1/2 and phospho-MEK were from Cell Signaling Technology (Danvers, Mass., USA). Appropriate horseradish peroxidase-conjugated secondary antibodies were used. Protein bands reacting to specific antibody were visualized by use of enhanced chemiluminescence (Amersham) with exposure to chemiluminescence light film (BioMax; Kodak Co.).
A general note: In western blotting, separated proteins are transferred to a membrane and probed.

As for `C=C1C(=O)O[C@H]2CC3=C[C@@H](C/C(C)=C/[C@@H](OC(=O)Cc4cccc5ccccc45)[C@H]12)OC3=O` [DETD-35], the “effect on mouse body weight” value in data set [1] (10 mg/kg i.p.) is on record as “without affecting the mouse body weight”. Besides, the “fold decrease of tumor volume at day-71 vs tumor control” value in data set [1] (10 mg/kg i.p.) was 1.8 folds. Moreover, the “tumor growth vs control group” value in data set [1] (10 mg/kg i.p. every three days, day-56) was “significantly delayed”. For the same compound, the “tumor volume at day-71” value in data set [1] (10 mg/kg i.p. every three days, tumor control 1268) turned out to be 712 mm^3. Also, the body weight result in data set [2] (2 mg/kg group) is on record as “slightly lower than other groups with no statistical difference”. Moreover, the “reduction of number of tumor foci in lungs vs tumor control” value turned out to be 9% in data set [2] (post-treatment, 2 mg/kg i.p. every three days, not statistically significant); 50% in data set [2] (post-treatment, 10 mg/kg i.p. every three days); 83% in data set [2] (pretreatment, 10 mg/kg every two days, three doses before tumor cell injection). Moreover, the “combination effect with PTX (isobologram, combination index)” value in data set [3] is reported as “acted synergistically”. Also, the “combination effect with PLX4032 (combination index)” value in data set [4] is “acted synergistically”. Also, in data set [5], the IC50 (commonly the midpoint of a concentration-inhibition curve) was 800 nM. In addition, in data set [6], the “effect on MAP kinases (phospho-MEK, phospho-ERK), A375-R” value is “inhibited reactivation of MAP kinases”.
